pIC50, pKd: −log10 of the molar value. Where a SMILES comes first, the peptide text is derived from it. Bridges are numbered along the chain shown (N, C = ends). [ ]: non-standard residue; d: D form. The star is where a group is joined. Octanoyl = CCCCCCCC(=O)*; Dab = NCC[C@H](N)C(=O)O; Abu = CC[C@H](N)C(=O)O
What was measured:
[1] = target: T1, binding of Shiga toxin 2 to human neutrophils expressing the TLR4 (Escherichia phage 933W, UniProt P09385); experiment: cell-based; type: cell-based
[2] = system: neutrophil/platelet aggregates in human blood; type: cell-based
[3] = system: monocyte/platelet aggregates in human blood; type: cell-based
[4] = target: T1, binding of Shiga toxin 2 to human neutrophils expressing the TLR4; conditions: cited from earlier work
[5] = system: Raji cells (Burkitt lymphoma); conditions: cited from earlier work
[6] = system: human renal tubule cells; conditions: cited from earlier work
[7] = target: Shiga toxin 2 (Escherichia phage 933W, UniProt P09385); experiment: biochemical; type: binding
Sequence of Shiga toxin 2 (P09385 whole entry, looked up): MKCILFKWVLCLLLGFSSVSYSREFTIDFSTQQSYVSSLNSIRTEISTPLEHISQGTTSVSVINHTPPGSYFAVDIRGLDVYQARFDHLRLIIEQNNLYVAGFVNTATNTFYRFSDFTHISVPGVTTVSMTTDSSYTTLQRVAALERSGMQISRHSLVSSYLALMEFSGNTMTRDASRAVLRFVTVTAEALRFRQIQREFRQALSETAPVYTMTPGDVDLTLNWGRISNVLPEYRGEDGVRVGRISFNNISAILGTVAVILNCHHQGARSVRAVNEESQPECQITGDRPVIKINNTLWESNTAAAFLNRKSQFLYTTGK

[8] = system: Raji cells (Burkitt lymphoma); type: cell-based, human

T1 sequence (P09385 whole entry, looked up): as above

Compound: OA-Thr-Abu-cy[Dab-Dab-DPhe-Leu-Dab-Dab-Thr-] [NAB7061, reference compound]
- inhibition of the binding of Shiga toxin 2 to the neutrophil (in words) [1]: scarcely effective

Compound: MOA/MHA-Dab-Thr-Dab-cy[Dab-Dab-DPhe-Leu-Dab-Dab-Thr-] [polymyxin B]
- effect on formation of neutrophil/platelet aggregates (in words) [2]: not effective
- effect on formation of monocyte/platelet aggregates (in words) [3]: not effective
- IC50 of binding of Shiga toxin 2 to neutrophils [4]: 3.5 µg/mL
- protection of Raji cells from Shiga toxin 2 intoxication [5]: no protective effect
- cytotoxicity IC50 [6]: 18 µg/mL

Compound: CCCCCCCC(=O)N[C@@H](CCN)C(=O)N[C@H](C(=O)N[C@@H](C(=O)N[C@H]1CCNC(=O)[C@H]([C@@H](C)O)NC(=O)[C@H](CCN)NC(=O)[C@H](CC)NC(=O)[C@H](CC(C)C)NC(=O)[C@@H](Cc2ccccc2)NC(=O)[C@H](CCN)NC1=O)[C@H](C)O)[C@@H](C)O [NAB815, OA-Dab-Thr-DThr-cy[Dab-Dab-DPhe-Leu-Abu-Dab-Thr-]] (Octanoyl-[Dab]T[dT][Dab][Dab][dF]L[Abu][Dab]T; lactam 4-C)
- inhibition of the binding of Shiga toxin 2 to the neutrophil (in words) [1]: strong inhibitor
- pIC50 ([1]; IC50 (concentration determining a 50% inhibition) of binding of Shiga toxin 2 to neutrophils): 7.31
- pIC50 ([1]; concentration inhibiting binding of Shiga toxin 2 to neutrophils by 50%): 7.37
- pKd [7]: 8.30
- maximum reduction of the fluorescence emission [7]: approximately 10%
- protection of Raji cells from Shiga toxin 2 intoxication (protein synthesis) [8]: no protective effect
- inhibition of formation of neutrophil/platelet aggregates [2]: more than 70%
- inhibition of formation of monocyte/platelet aggregates [3]: more than 70%

Compound: Ac-Thr-DSer-cy[Dab-Dab-DPhe-Leu-Dab-Dab-Thr-] [NAB741, reference compound]
- inhibition of the binding of Shiga toxin 2 to the neutrophil (in words) [1]: scarcely effective
